Measurements from patent US12485078B2, “Personal dental care product for caries treatment” (Credentis AG, priority 2016, dated 2025).
No end group written: not given here.

Assays:
[1] = self-assembling kinetic by measurements of elastic modulus G' (FIG. 6); format: physicochemical; settings: 15 mg/ml; neutral pH; independent of ionic strength (buffers 140-165 mM); 0.1% strain, 37° C., 1 rad/second
Method: P11-4 was prepared at 15 mg/ml with different buffer compositions (see below) measured at 0.1% strain, 37° C. and a frequency of 1 rad/second. Self-assembly of peptide monomers to polymers takes more than 5 min independent of the used ionic strength at neutral pH. • Squares (top line of symbols)−NaCl: Tris (0.055 M)+NaCl, final ionic strength 142 mM; • Artificial saliva (second line of symbols from top): Tris, Ca(NO3)2, KH2PO4 (ratio 0.77:0.14:0.08), ionic strength 142 mM; • Dulbecco's Modified Eagle Medium (DMEM): NaCl, NaHCO3, KCl, CaCl2, MgSO4 (ratio 0.66:0.4:0.05:0.02:0.007), ionic strength 165 mM; • MgSO4: 0.055 M Tris+0.192 M MgSO4 0.14 M Ionic strength

[2] = pH at which the peptide starts to undergo self-assembly; format: physicochemical; settings: in solution
Description: As used herein, the pH at which the self-assembling peptide starts to undergo self-assembly refers to the pH below which a significant extent of self-assembly of the peptides in solution is observed, which means that at least about 25%, about 30%, about 35%, about 40%, about 45%, about 50%, about 55%, about 60%, about 65%, about 70%, about 75%, about 80%, about 85%, about 90%, about 95%, about 99% or even about 100% of the peptides found in the dental care product are assembled. In a preferred embodiment, at least about 25% of the peptides found in the dental care product are assembled below the pH at which the peptide starts to undergo self-assembly.
Further, the skilled person is aware of numerous methods to determine the pH at which a peptide of the present invention will start self-assembly at a given ionic strength. Suitable methods are denoted e.g. in a publication by Aggeli et al. (2003, J Am Chem Soc, 125, 9619-9628).

[3] = self-assembling kinetic by quartz crystal microbalance with dissipation monitoring (QCM-D, FIG. 7); format: physicochemical; settings: 10 mg/ml P11-4 in PBS pH 8.5 on P11-4 coated amine-coupling sensor
Method: P11-4 peptide was layered on the surface of the amine-coupling sensor at 1 mg/ml in PBS at pH8.5. After 1 hour and 1 hour 25 minutes, the sensor was washed with PBS pH 8.5. After 1 hour and 38 minutes, 10 mg/ml P11-4 peptide in PBS pH 8.5 were injected. After 2 hours, 0.1 M HCl were injected to induce self-assembly.
It can be seen that essentially complete self-assembly has occurred about 30 min after injection of 0.1 M HCl. Resonance frequency F (left scale, Hz) and energy dissipation factor D (right scale), triangle=frequency, square=dissipation are shown.

[4] = Penetration of P11-4 (200 ppm, spiked with 10 ppm ATTO647-P11-4, 25 mM TRIS) into artificial subsurface lesions, confocal microscopy; parameters: species or system human
Method: Creation of artificial lesions on extracted human molar teeth was performed as described by Lo et al. 2010 (J Dent. 38(4):352-359). To define the position of the demineralized subsurface area (i.e., artificial carious lesion or white spot), the tooth was covered with colourless nail varnish, leaving a window of approximately 4×4 mm. The tooth was placed in demineralization buffer (2.2 mM CaCl2, 2.2 mM NaH2PO4, 50 mM acetic acid; pH adjusted with 1 M KOH to 4.4) for 3 d at 37° C. To ensure that all pores are open, as in a typical active caries lesion, the resulting subsurface lesions were treated with 10 μL of 2% NaClO (incubation for 1 min), rinsed, and air-dried at room temperature.
• A 200 ppm (i.e., 200 μg/ml) solution of P11-4 (SEQ ID NO: 2), spiked with 10 ppm ATTO647-P11-4 (fluorescence labelled P11-4 (SEQ ID NO: 6): Ac-QQRFEWEFEQQSGSGC-(ATTO647)-NH2), i.e., 1:20, in 25 mM TRIS buffer was prepared at different pH, in particular, at 8.4 or 8.5 or 6.3, 6.5 or 6.8) • As specified in the table below, tooth were optionally pretreated, e.g., by incubation in human saliva for one day (about 24 hours), optionally followed by 5 min sonication (258 hz with a sonic toothbrush, Sonicare Diamond Clean® (Philips)) or by immersion in 2% NaClO for 1 min. • Tooth were immersed in the P11-4 solution for a defined period of time, 1, 2 or 5 min, and then removed and washed in water for 10 min or in remineralization buffer (2 mM Ca(NO3), 1.2 mM KHPO4, and 60 mM Tris/HCl, pH adjusted to 7.4 with 1 M KOH) for 4 days and/or 6 days. • Confocal assessment after 1, 2 or 5 min incubation was carried out while the teeth were in P11-4 solution, and optionally, after washing in water or in remineralization buffer after 10 min or 4 or 6 days. c) Confocal Microscopy
Samples were placed in a μ-slide I (ibidi, Martinsried) in dest. water and analyzed by a confocal laser microscope (Olympus IX81). The recorded stack of four 2-dimensional images each projected the lesion volume of 51.4 μm thickness, giving a total assessment depth of 205 μm (objective: UPLSAPO 20×/NA 0.75; helium-neon gas laser; excitation: 633 nm and emission: 668 nm). Images were analyzed by Olympus software (FluoView FV1000).

QQRFEWEFEQQ [self-assembling peptide of 11 amino acids]
time for self-assembly of peptide monomers to polymers [1]: more than 5 min | pH at which the self-assembling peptides start to undergo self-assembly [2]: about 7.5 | time to essentially complete self-assembly after injection of 0.1 M HCl [3]: about 30 min | peptide in the lesions after 4 days' incubation in remineralization buffer ([4]; pH8.5, FIG. 9Be): Lower but significant amounts | peptide in the lesions after 1 min incubation ([4]; pH8.5, teeth 10 and 1, FIG. 9Bb): already detectable | peptide in the lesions after 2 min or 5 min incubation ([4]; pH8.5, teeth 10 and 1, FIG. 9Bc, 9Bd): most peptide was detected | effect of incubation in remineralization buffer after contact with P11-4 containing solution ([4]; remineralization buffer versus water wash (tooth 10 versus tooth 2)): improves maintenance of the self-assembling peptide in the lesion | effect of pellicle formation by saliva on infiltration at pH 6.3-6.8 ([4]; teeth 3, 13): further decreased infiltration by peptide | peptide detectable in the lesions after incubation at pH 6.3-6.8 (polymerized form) ([4]; teeth 4, 12, 3, 13, versus incubation at pH 8.4 or 8.5): lower amounts of peptide | negative effect of pellicle after cleaning by sonication or NaClO ([4]; teeth ZR3 (sonication) and ZR2 (NaClO), after incubation with human saliva): could be compensated for | effect of sonification pretreatment before incubation on peptide in the lesions ([4]; tooth ZR1, pH 8.5): increased presence of peptide in the lesions | peptide detected after pellicle formation and cleaning by sonification ([4]; versus no pre-incubation with saliva): even higher amounts than without pre-incubation with saliva
